# In ChEMBL document CHEMBL1134501, “Structure-activity studies for a novel series of bicyclic substituted hexahydrobenz[e]isoindole alpha1A adrenoceptor antagonists as potential agents for the symptomatic treatment of benign prostatic hyperplasia” (J Med Chem, 2001):
# How the values were obtained:
# [1] = target: T1, Alpha-1D adrenergic receptor (Rattus norvegicus, UniProt P23944); experiment: Binding affinity to rat alpha-1D adrenergic receptor expressed in LTK cells; type: cell-based
# T1 sequence (P23944 whole entry): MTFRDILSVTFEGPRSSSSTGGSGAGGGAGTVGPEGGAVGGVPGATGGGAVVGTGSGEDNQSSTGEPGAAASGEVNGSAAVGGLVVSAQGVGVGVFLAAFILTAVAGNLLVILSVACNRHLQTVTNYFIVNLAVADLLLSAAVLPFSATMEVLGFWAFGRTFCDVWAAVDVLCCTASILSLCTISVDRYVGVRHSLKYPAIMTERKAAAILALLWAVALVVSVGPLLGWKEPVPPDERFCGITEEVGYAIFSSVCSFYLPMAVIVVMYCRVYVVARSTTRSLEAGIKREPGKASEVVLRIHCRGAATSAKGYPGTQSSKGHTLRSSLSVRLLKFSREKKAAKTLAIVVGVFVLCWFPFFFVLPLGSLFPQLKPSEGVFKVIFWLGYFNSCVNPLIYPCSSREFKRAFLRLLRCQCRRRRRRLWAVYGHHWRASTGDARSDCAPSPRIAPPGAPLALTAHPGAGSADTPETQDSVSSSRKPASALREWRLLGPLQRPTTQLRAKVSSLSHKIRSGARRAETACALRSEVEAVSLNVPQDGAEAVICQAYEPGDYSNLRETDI
# Cricetulus griseus = species: Cricetulus griseus; experiment: Selectivity ratio (alpha-1B/alpha-1A) of the compound
# [2] = target: T2, Alpha-1A adrenergic receptor (Rattus norvegicus, UniProt P43140); experiment: Binding affinity to alpha-1A adrenergic receptor in rat submaxillary gland; type: tissue-based
# T2 sequence (P43140 whole entry): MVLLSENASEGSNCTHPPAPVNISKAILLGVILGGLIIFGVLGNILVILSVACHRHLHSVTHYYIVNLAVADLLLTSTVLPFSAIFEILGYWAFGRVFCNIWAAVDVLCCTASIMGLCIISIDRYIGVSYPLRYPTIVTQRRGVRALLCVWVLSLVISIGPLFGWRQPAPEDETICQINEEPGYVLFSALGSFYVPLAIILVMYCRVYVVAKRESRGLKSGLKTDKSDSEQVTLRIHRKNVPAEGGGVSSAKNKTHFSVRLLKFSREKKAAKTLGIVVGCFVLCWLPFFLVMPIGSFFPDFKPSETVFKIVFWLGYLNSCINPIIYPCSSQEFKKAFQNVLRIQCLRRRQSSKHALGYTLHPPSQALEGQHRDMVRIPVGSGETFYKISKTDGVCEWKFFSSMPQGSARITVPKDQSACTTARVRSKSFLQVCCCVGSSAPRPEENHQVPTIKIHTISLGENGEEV
# [3] = Selectivity ratio (antolog[pA2rat vas deferens/pA2 rat spleen]) of the compound; type: functional
# [4] = target: T3, Alpha-1B adrenergic receptor (Rattus norvegicus, UniProt P15823); experiment: In vitro antagonistic activity against alpha-1B receptor in rat spleen.; type: functional, tissue-based; details: read-out: pA2 (converted)
# T3 sequence (P15823 whole entry): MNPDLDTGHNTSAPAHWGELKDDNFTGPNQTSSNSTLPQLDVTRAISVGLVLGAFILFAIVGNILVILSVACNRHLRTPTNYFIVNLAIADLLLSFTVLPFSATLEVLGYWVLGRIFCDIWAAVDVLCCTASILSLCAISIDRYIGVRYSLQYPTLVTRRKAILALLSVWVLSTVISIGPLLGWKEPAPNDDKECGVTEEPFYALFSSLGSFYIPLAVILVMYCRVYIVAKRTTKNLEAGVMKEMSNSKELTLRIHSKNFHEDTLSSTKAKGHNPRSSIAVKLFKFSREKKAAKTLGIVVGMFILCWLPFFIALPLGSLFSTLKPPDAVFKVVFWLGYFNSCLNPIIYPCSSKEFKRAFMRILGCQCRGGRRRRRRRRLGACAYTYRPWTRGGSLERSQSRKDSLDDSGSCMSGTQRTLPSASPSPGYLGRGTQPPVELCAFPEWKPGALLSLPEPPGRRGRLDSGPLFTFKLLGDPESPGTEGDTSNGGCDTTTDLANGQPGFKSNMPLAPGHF
# [5] = target: Alpha-1A adrenergic receptor (Canis familiaris); experiment: In vitro antagonistic activity against alpha-1A receptor in dog prostate.; details: read-out: pA2 (converted)
# [6] = target: T2, Alpha-1A adrenergic receptor; experiment: In vitro antagonistic activity towards alpha-1A adrenergic receptor in rat vas deferens; type: functional, tissue-based; details: read-out: pA2 (converted)
# Canis familiaris = experiment: In vivo antagonist dissociation constant in intaraurethral pressure model in dogs.; details: Canis lupus familiaris, read-out: pA2 (converted)
# Rattus norvegicus = species: Rattus norvegicus; experiment: Antagonistic activity in spontaneously hypertensive rat model.; type: functional
Ki [1] [nM],Ratio (Cricetulus griseus),Ki [2] [nM],Compound,also measured
2.86,5.96,2.73,COc1cccc2c1CC[C@H]1CN(CCn3c(=O)[nH]c4c(C)cc(C)cc4c3=O)C[C@@H]21,–
1.78,2.19,1.41,COc1cccc2c1CC[C@H]1CN(CCn3c(=O)[nH]c4cnccc4c3=O)C[C@@H]21,–
1.67,2.15,1.2,COc1cccc2c1CC[C@H]1CN(CCn3c(=O)[nH]c4[nH]ccc4c3=O)C[C@@H]21,–
2.87,1.55,6.8,COc1cccc2c1CC[C@H]1CN(CCn3c(=O)[nH]c4ccncc4c3=O)C[C@@H]21,–
1.45,6.5,1.09,COc1cccc2c1CC[C@H]1CN(CCn3c(=O)[nH]c4c(C)c(OC)sc4c3=O)C[C@@H]21,–
1.01,2.04,1.03,COc1cccc2c1CC[C@H]1CN(CCn3c(=O)[nH]c4sccc4c3=O)C[C@@H]21,–
0.92,1.17,1.39,COc1cccc2c1CCC1CN(CCn3c(=O)[nH]c4ccsc4c3=O)CC21 (configuration not stated),–
0.62,1.73,0.67,COc1cccc2c1CC[C@H]1CN(CCn3c(=O)[nH]c4ccccc4c3=O)C[C@@H]21,–
0.69,1.31,0.71,COc1cccc2c1CC[C@H]1CN(CCn3c(=O)[nH]c4cccc(Cl)c4c3=O)C[C@@H]21,–
0.21,7.3,0.09,COc1ccc2c(=O)n(CCN3C[C@@H]4CCc5c(OC)cccc5[C@@H]4C3)c(=O)[nH]c2c1,–
0.68,16.5,0.04,COc1cccc2c1CC[C@H]1CN(CCn3c(=O)[nH]c4c(OC)c(OC)ccc4c3=O)C[C@@H]21,Ratio [3]: 5.62
3.71,13.2,0.25,COc1cc2c(=O)n(CCN3C[C@@H]4CCc5c(OC)cccc5[C@@H]4C3)c(=O)n(C)c2cc1OC,–
1.5,5.6,0.41,COc1cccc2c1CC[C@H]1CN(CCn3c(=O)[nH]c4c(C(C)C)c(OC)sc4c3=O)C[C@@H]21,–
0.77,17.3,0.09,COc1cccc2c1CC[C@H]1CN(CCn3c(=O)[nH]c4cc(C#N)ccc4c3=O)C[C@@H]21,Ratio [3]: 12.59; Kb [4]: 18.6 nM; Kb [5]: 0.148 nM; Kb [6]: 1.48 nM
0.41,1.95,0.43,COc1cccc2c1CC[C@H]1CN(CCn3c(=O)[nH]c4cc(NC(C)=O)ccc4c3=O)C[C@@H]21,–
83.4,1.43,80.7,COc1cc2c(cc1OC)CN(CCN1C[C@@H]3CCc4c(OC)cccc4[C@@H]3C1)CC2,–
1.13,0.9,1.15,COc1cccc2c1CC[C@H]1CN(CCn3c(=O)[nH]c4cccc(C)c4c3=O)C[C@@H]21,–
189,1.01,62.2,COc1cc2c(cc1OC)NCN(CCN1C[C@@H]3CCc4c(OC)cccc4[C@@H]3C1)C2,–
–,–,–,CCOc1ccccc1OCCN[C@H](C)Cc1ccc(OC)c(S(N)(=O)=O)c1 [TAMSULOSIN],Kb (Canis familiaris): 1.35 nM
–,–,–,COc1cc2nc(N3CCN(C(=O)C4CCCO4)CC3)nc(N)c2cc1OC (configuration not stated) [TERAZOSIN],Kb (Canis familiaris): 95.5 nM
0.77,6.07,0.27,COC(=O)c1ccc2c(=O)n(CCN3C[C@@H]4CCc5c(OC)cccc5[C@@H]4C3)c(=O)[nH]c2c1,–
5.49,1.36,9.22,COc1cccc2c1CC[C@H]1CN(CCn3c(=O)[nH]c4nccnc4c3=O)C[C@@H]21,–

Ki [1] [nM],Ratio (Cricetulus griseus),Ki [2] [nM],Compound,also measured
–,–,–,COc1cc2nc(N(C)CCCNC(=O)C3CCCO3)nc(N)c2cc1OC (configuration not stated) [ALFUZOSIN],Kb (Canis familiaris): 135 nM; Kb [4]: 4.9 nM
0.52,2.1,0.48,COc1cccc2c1CC[C@H]1CN(CCn3c(=O)[nH]c4cscc4c3=O)C[C@@H]21,–
1.15,2.67,0.85,COc1cccc2c1CC[C@H]1CN(CCn3c(=O)[nH]c4c(OC)cccc4c3=O)C[C@@H]21,–
32.7,7.8,3.75,COc1cc(N)c(C(=O)NCCN2C[C@@H]3CCc4c(OC)cccc4[C@@H]3C2)cc1OC,–
0.73,2.94,1.38,COc1cccc2c1CC[C@H]1CN(CCn3c(=O)[nH]c4cc(C)c(C)cc4c3=O)C[C@@H]21,–
58.4,7.83,7.82,COc1cc2c(cc1OC)C(=O)N(CCN1C[C@@H]3CCc4c(OC)cccc4[C@@H]3C1)CC2,–
2.71,4.9,1.89,COc1cc2[nH]c(=O)n(CCN3C[C@@H]4CCc5c(OC)cccc5[C@@H]4C3)c(=O)c2cc1Cl,–
4.4,1.5,7.73,COc1cccc2c1CC[C@H]1CN(CCn3c(=O)[nH]c4cc(-c5ccccc5)sc4c3=O)C[C@@H]21,–
72,7.4,12.9,COc1cc2c(cc1OC)C(=O)N(CCN1C[C@@H]3CCc4c(OC)cccc4[C@@H]3C1)CN2,–
0.92,–,1.39,COc1cccc2c1CC[C@H]1CN(CCn3c(=O)[nH]c4ccsc4c3=O)C[C@@H]21,–
168,1.5,123,COc1cc2c(cc1OC)NC(=O)N(CCN1C[C@@H]3CCc4c(OC)cccc4[C@@H]3C1)C2,–
1.4,–,–,COc1cc2[nH]c(=O)n(CCN3C[C@@H]4CCc5c(OC)cccc5[C@@H]4C3)c(=O)c2cc1OC,–
2.5,2.29,3.58,COc1cccc2c1CC[C@H]1CN(CCn3c(=O)[nH]c4cccnc4c3=O)C[C@@H]21,–
1.2,3.65,0.91,COc1cccc2c1CC[C@H]1CN(CCn3c(=O)[nH]c4cc([N+](=O)[O-])ccc4c3=O)C[C@@H]21,–
1.38,2.3,1.48,COC(=O)c1cc2[nH]c(=O)n(CCN3C[C@@H]4CCc5c(OC)cccc5[C@@H]4C3)c(=O)c2s1,–
1.99,–,–,COc1cccc2c1CC[C@H]1CN(CCn3c(=O)[nH]c4ncccc4c3=O)C[C@@H]21,–
0.66,1,0.33,COc1cccc2c1CC[C@H]1CN(CCn3c(=O)[nH]c4c(-c5ccccc5)csc4c3=O)C[C@@H]21,–
0.24,18,0.04,COc1cc2[nH]c(=O)n(CCN3C[C@@H]4CCc5c(OC)cccc5[C@@H]4C3)c(=O)c2s1,–
7.79,–,–,COc1cc2ncn(CCN3C[C@@H]4CCc5c(OC)cccc5[C@@H]4C3)c(=O)c2cc1OC,Kb (Canis familiaris): 5.01 nM; Kb [4]: 85.1 nM; pED50 (Rattus norvegicus): 5.32
0.89,14.6,0.09,COc1cccc2c1CC[C@H]1CN(CCn3c(=O)[nH]c4c(C)c(C)ccc4c3=O)C[C@@H]21,–
1.13,3.68,1.02,COc1ccc2[nH]c(=O)n(CCN3C[C@@H]4CCc5c(OC)cccc5[C@@H]4C3)c(=O)c2c1,–
0.71,–,0.85,COc1cccc2c1CC[C@H]1CN(CCn3c(=O)[nH]c4c(C)csc4c3=O)C[C@@H]21,–
